{
  "source": "patent US20180118707A1",
  "about": "“BETA-NAPHTHOISOFLAVONES, COMPOSITIONS CONTAINING, AND USES OF, SAME” (Thesan Pharmaceuticals, Inc., priority 2015, published 2018)",
  "key": {"[1]": {"molecular_target": "T1, Aryl Hydrocarbon Receptor (Homo sapiens, UniProt P35869)", "T1 construct": "endogenous in cells; host or cells: Normal human keratinocytes (NHK) transduced with the lentivector plox-XRE TATA-Luc (reporter only)", "T1 sequence (P35869 11-848)": "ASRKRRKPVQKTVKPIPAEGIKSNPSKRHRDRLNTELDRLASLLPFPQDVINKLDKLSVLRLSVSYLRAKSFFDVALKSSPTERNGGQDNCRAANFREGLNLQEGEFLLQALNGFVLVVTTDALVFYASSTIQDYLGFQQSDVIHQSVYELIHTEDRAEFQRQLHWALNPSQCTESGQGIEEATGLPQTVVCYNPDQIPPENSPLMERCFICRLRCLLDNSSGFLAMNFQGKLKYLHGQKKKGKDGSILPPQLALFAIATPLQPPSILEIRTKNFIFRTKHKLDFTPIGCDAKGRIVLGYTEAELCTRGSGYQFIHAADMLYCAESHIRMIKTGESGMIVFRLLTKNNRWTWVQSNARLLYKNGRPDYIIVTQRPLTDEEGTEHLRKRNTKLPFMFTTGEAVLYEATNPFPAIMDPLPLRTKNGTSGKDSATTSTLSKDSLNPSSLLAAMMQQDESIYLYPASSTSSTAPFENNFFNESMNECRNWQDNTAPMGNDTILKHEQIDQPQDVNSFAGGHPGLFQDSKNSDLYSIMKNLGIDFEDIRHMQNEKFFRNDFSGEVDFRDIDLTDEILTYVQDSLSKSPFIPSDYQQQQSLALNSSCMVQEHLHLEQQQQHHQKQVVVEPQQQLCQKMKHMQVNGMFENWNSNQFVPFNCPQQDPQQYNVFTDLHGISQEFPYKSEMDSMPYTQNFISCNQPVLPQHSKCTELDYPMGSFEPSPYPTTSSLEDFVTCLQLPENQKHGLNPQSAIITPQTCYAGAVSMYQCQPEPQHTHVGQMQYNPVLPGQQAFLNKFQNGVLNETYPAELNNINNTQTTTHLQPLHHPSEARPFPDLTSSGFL", "assay": "AhR activation luciferase reporter in Hep G2-plox-XRE TATA-Luc cells", "type": "cell-based", "conditions": "treatment for 24 h with 1-10 uM", "protocol": "AhR activation is measured in HEP G2 cells (hepatocytes, Hep G2 is a human liver carcinoma cell line) stably transfected with the lentivector plox-XRE TATA-Luc. The Hep G2 cells are cultured in a growing media consisting of DM EM (Glbco)+10% fetal bovine serum+penicillin+streptomycin. At D0, the Hep G2 cells are seeded into 12-well plates in proportions of approximately 30,000 cells/cm^2. After 24 h, the medium is replaced with fresh medium and the cells are transduced with the lentivector plox-XRE TATA-Luc. After 48 h, the cells are subcultured and maintained in culture, and tested for their reactivity to 3-phenyl-1H-benzo[f]chromen-1-one. The tests are carried out using the luciferase reporter assay system kit from Promega. At D0, the cells are seeded at a density of approximately 60% confluence, and then treated, at D1, with the test substance diluted to various concentrations in the appropriate culture medium. At D2, the cells are lysed in CLB buffer, and the lysate is clarified by centrifugation for 5 min at 10 000 g. The luciferase activity is measured in 20 microliters of lysate as recommended by the supplier, using the luminoskan luminometer (Thermo). […] Data is processed and ECso's can be calculated from standard data monitoring software."}, "CYP1A1 enzyme": {"tested_on": "CYP1A1 enzyme", "assay": "Induction of CYP1A1 enzyme in HepG2 cells, EROD assay", "type": "cell-based, human", "conditions": "10 uM, 24 h", "protocol": "(§1) The formation of resorufin is quantified by fluorometry with a fluorescence plate reader. Fluorescence is determined at λex 570 nm and λem 590 nm. The amount of resorufin is calculated from a standard curve generated using 0 to 1 μM resorufin in water at ½ log dilutions. The remaining (i.e. all cells present at the beginning of analysis, since only supernatant is taken to assay EROD) live cells are subsequently utilized for the MIT cytotoxicity assay. MTT is made up in serum-free medium at 5 mg/ml. then added to the cells giving a final concentration of 10% (0.5 mg/ml MTT final) then incubated for 2 h. The medium is carefully removed, then MTT formazan is solubilized by adding 200 μl of DMSO and subsequently mixed on a plate shaker. The absorbance is measured spectra photometrically at 550 nm and background absorbance at 690 nm is subtracted. A standard curve generated using MIT formazan (dissolved in DMSO) from O—200 μM (0, 2, 5, 10, 20, 50, 100, 200 μM) is used to calculate the final experimental values which are then expressed as (wnol resarufin/mol MTT formazan) or as fold-Induction compared to solvent."}, "CYP1A1": {"tested_on": "CYP1A1", "assay": "Induction of CYP1A1 enzyme in HepG2 cells, EROD assay", "type": "cell-based, human", "conditions": "human, probe 7-ethoxyresorufin (8 μM)", "protocol": "as §1"}},
  "data": [
    {"compound": "O=c1cc(-c2ccccc2)oc2ccc3ccccc3c12", "note": "[D, 3-Phenyl-1H-benzo[f]chromen-1-one, reference compound]", "values": [
      {"measurement": "induction of the luciferase activity", "setting": "[1]", "result": "significant induction"},
      {"measurement": "% change vs. TCDD EROD (HepG2) at 10 uM", "setting": "CYP1A1 enzyme", "result": 19, "unit": "%"},
      {"measurement": "EC50 at 24 h", "setting": "CYP1A1", "result": 1000, "unit": "nM"}
    ]}
  ]
}
